Data taken from US20250206761A1, “HALOINDOLE MACROCYCLIC COMPOUNDS FOR THE TREATMENT OF CANCER” (Hoffmann-La Roche Inc., priority 2022, published 2025).
pIC50: −log10 of the molar value.

Tests used:
SW620 (ATCC-CCL-227) = assay: Cell viability assay, G12V (SW620); type: cell-based, human; conditions: Homo sapiens, SW-620; KRAS cell viability, SW620, 72 hrs, Cell Counting Kit-8
Method in brief: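 Cells seeded at 5,000/well (NCI-H358) or 2,000/well (AGS, SW620), treated next day at 0.5% final DMSO for 72 h. Viability read by CCK-8 (OD450 minus OD650) after 2 h; IC50 from 4-parameter sigmoidal fit.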

[1] = test system: phosphorylation of ERK, KRAS G12C in NCJ-H358 cells; assay: pERK inhibition assay, KRAS G12C; type: cell-based, human; conditions: Homo sapiens, 4 hours
Method in brief: (§1)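 ERK phosphorylation is measured after 4 h of compound exposure in attached cells, using a colorimetric immunoassay on fixed, permeabilized monolayers. IC50 is derived by 4-parameter sigmoidal fitting.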

[2] = test system: phosphorylation of ERK, KRAS G12D in AGS cells; assay: pERK inhibition assay, KRAS G12D; type: cell-based, human; conditions: Homo sapiens, 4 hours
Method in brief: as §1

[3] = test system: phosphorylation of ERK, KRAS G12V in SW620; assay: pERK inhibition assay, KRAS G12V; type: cell-based, human; conditions: Homo sapiens, SW-620, SW620, 4 hours
Method in brief: as §1

[4] = GSH reaction rates (inherent GSH reactivity); type: in vitro ADME; parameters: half-life: dose or concentration left out as unconfirmed; conditions: for half-life: buffer, pH 7.4
Description: For inherent GSH reactivity determination, compounds […] were incubated at 37° C. with and without 5 mM GSH for 0, 0.5, 1, 2, 4 and 6 h in 100 mM potassium phosphate buffer at pH 7.4. At the end of the designated time points, samples were quenched with acetonitrile containing 10 mM N-ethylmaleimide and an internal standard. Quenched samples were centrifuged, and supernatants were analyzed by LC-MS/MS for compound quantification.

[5] = test system: cryopreserved suspension hepatocytes from human; assay: Human hepatocyte stability assay; type: in vitro ADME; conditions: for Clearance Category: human hepatocytes; for CL_hep (Human): human hepatocytes 1×10^6 cells/mL, 37° C.
Description: The hepatocyte stability assay measures the rate of disappearance of a compound from incubations with cryopreserved suspension hepatocytes from human. Positive controls, including Midazolam, Raloxifene and Dextromethorphan, are included in every experiment. Incubations consist of […] tested compound and suspension of human hepatocytes (1×10^6 cells/mL) in supplemented Williams' E Medium with 10% FBS and 0.5% Penicillin-streptomycin. The hepatocyte suspension was incubated with intermittent shaking 900 rpm at 37° C., in a 5% CO2 incubator. The reaction was stopped by adding methanol containing internal standard (2 μM Tolbutamide) at 2, 10, 20, 40, 60 and 120 minutes after compound addition, depletion of the parent compound was monitored by LC-MS/MS analysis.

## CCn1c(-c2cc(N3CCOCC3)cnc2[C@H](C)OC)c2c3cc(c(F)cc31)-c1csc(n1)C[C@H](NC(=O)[C@H](C(C)C)N1CC[C@@]3(CCN(C(=O)[C@H](F)Cl)C3)C1=O)C(=O)N1CCC[C@H](N1)C(=O)OCC(C)(C)C2 (atropisomer, axis not shown; (M)) [Example 53, (2S)-2-[(5R)-7-[(2R)-2-chloro-2-fluoro-acetyl]-1-oxo-2,7-diazaspiro[4.4]nonan-2-yl]-N-[(7S,13S)-21-ethyl-24-fluoro-(20M)-20-[2-[(1S)-1-methoxyethyl]-5-morpholino-3-pyridyl]-17,17-dimethyl-8,14-dioxo-15-oxa-4-thia-9,21,27,28-tetrazapentacyclo[17.5.2.1^2,5.1^9,13.0^22,26]octacosa-1(25),2,5(28),19,22(26),23-hexaen-7-yl]-3-methyl-butanamide]
SW620 (ATCC-CCL-227)
  pIC50: 6.03
[1]
  pIC50: 8.52
[2]
  pIC50: 7.34
[3]
  pIC50: 7.21

## CC(C)[C@@H](C(=O)N[C@H]1Cc2cc(O)cc(c2)-c2ccc3c(C(C)(C)C#N)cn(c3c2)CC(C)(C)COC(=O)[C@@H]2CCCN(N2)C1=O)N1CCC2(CN(C(=O)CCl)C2)C1=O [RM44, reference compound]
[4]
  conjugation with GSH: formed conjugation with GSH
  half-life: 8.9 h
[5]
  Clearance Category: medium (16.24>CL_hep (mL/min/kg)>6.96 is medium clearance)
  CL_hep (Human): 14.7 mL/min/kg
SW620 (ATCC-CCL-227)
  pIC50: < 5.00
[1]
  pIC50: 5.72
[2]
  pIC50: < 5.00
[3]
  pIC50: < 5.00

## CCn1c(-c2cc(N3CCOCC3)cnc2[C@H](C)OC)c2c3cc(c(F)cc31)-c1csc(n1)C[C@H](NC(=O)[C@H](C(C)C)N1CC[C@]3(CCN(C(=O)[C@H](F)Cl)C3)C1=O)C(=O)N1CCC[C@H](N1)C(=O)OCC(C)(C)C2 (atropisomer, axis not shown; (M)) [Example 51, (2S)-2-[(5S)-7-[(2R)-2-chloro-2-fluoro-acetyl]-1-oxo-2,7-diazaspiro[4.4]nonan-2-yl]-N-[(7S,13S)-21-ethyl-24-fluoro-(20M)-20-[2-[(1S)-1-methoxyethyl]-5-morpholino-3-pyridyl]-17,17-dimethyl-8,14-dioxo-15-oxa-4-thia-9,21,27,28-tetrazapentacyclo[17.5.2.1^2,5.1^9,13.0^22,26]octacosa-1(25),2,5(28),19,22(26),23-hexaen-7-yl]-3-methyl-butanamide]
SW620 (ATCC-CCL-227)
  pIC50: 7.28
[1]
  pIC50: 8.70
[2]
  pIC50: 7.21
[3]
  pIC50: 7.24

## CCn1c(-c2cc(N3CCOCC3)cnc2[C@H](C)OC)c2c3cc(c(F)cc31)-c1csc(n1)C[C@H](NC(=O)[C@H](C(C)C)N(C)C(=O)[C@H]1CCN(C(=O)[C@H](F)Cl)C1)C(=O)N1CCC[C@H](N1)C(=O)OCC(C)(C)C2 (atropisomer, axis not shown; (M)) [Example 55, (3S)-1-[(2R)-2-chloro-2-fluoro-acetyl]-N-[(1S)-1-[[(7S,13S)-21-ethyl-24-fluoro-(20M)-20-[2-[(1S)-1-methoxyethyl]-5-morpholino-3-pyridyl]-17,17-dimethyl-8,14-dioxo-15-oxa-4-thia-9,21,27,28-tetrazapentacyclo[17.5.2.1^2,5.1^9,13.0^22,26]octacosa-1(25),2,5(28),19,22(26),23-hexaen-7-yl]carbamoyl]-2-methyl-propyl]-N-methyl-pyrrolidine-3-carboxamide]
SW620 (ATCC-CCL-227)
  pIC50: 6.81
[1]
  pIC50: 8.22
[2]
  pIC50: 6.97
[3]
  pIC50: 7.12

## CC(C)[C@@H](C(=O)N[C@H]1Cc2cc(O)cc(c2)-c2ccc3c(C(C)(C)C#N)cn(c3c2)CC(C)(C)COC(=O)[C@@H]2CCCN(N2)C1=O)N1CCCC2(CCN(C(=O)CCl)C2)C1=O (some centres unmarked) [RM351, reference compound]
[4]
  conjugation with GSH: formed conjugation with GSH
  half-life: 4.3 h
[1]
  pIC50: 6.45
[2]
  pIC50: < 5.00
[3]
  pIC50: < 5.00

## CCn1c(-c2cc(N3CCN(CC(F)(F)F)CC3)cnc2[C@H](C)OC)c2c3cc(c(F)cc31)-c1csc(n1)C[C@H](NC(=O)[C@H](C(C)C)N1CCC3(CN(C(=O)[C@H](F)Cl)C3)C1=O)C(=O)N1CCC[C@H](N1)C(=O)OCC(C)(C)C2 (atropisomer, axis not shown; (M)) [Example 37, (2S)-2-[2-[(2R)-2-chloro-2-fluoro-acetyl]-5-oxo-2,6-diazaspiro[3.4]octan-6-yl]-N-[(7S,13S)-21-ethyl-24-fluoro-(20M)-20-[2-[(1S)-1-methoxyethyl]-5-[4-(2,2,2-trifluoroethyl)piperazin-1-yl]-3-pyridyl]-17,17-dimethyl-8,14-dioxo-15-oxa-4-thia-9,21,27,28-tetrazapentacyclo[17.5.2.1^2,5.1^9,13.0^22,26]octacosa-1(25),2,5(28),19,22(26),23-hexaen-7-yl]-3-methyl-butanamide]
[4]; 5 mM GSH, 37° C., 100 mM potassium phosphate buffer pH 7.4, up to 6 h
  T1/2(hour) in GSH: stable (If % depletion after 6 hour incubation is less than 20%, compounds were reported as stable)
[4]; 5 mM GSH, 37° C., pH 7.4, 6 hr
  Remaining at 6 hr in GSH (%): 100%
[5]
  Clearance Category: low (CL_hep (mL/min/kg)<6.96 is low clearance)
  CL_hep (Human): 2.4 mL/min/kg
SW620 (ATCC-CCL-227)
  pIC50: 6.94
[1]
  pIC50: 8.52
[3]
  pIC50: 7.68
